Measurements as given in patent publication US20230148450A9, “BICYCLIC HETEROARYL COMPOUNDS AND USES THEREOF” (Revolution Medicines, Inc., priority 2019, published 2023).
Read-outs that look alike come from different tables or passages of the source.

Key:
[1] = test system: cellular pERK in PC-9 cells (EGFR Ex19Del); assay: Potency Assay: pERK; format: cell-based; conditions: Homo sapiens, read-out: SOS1 pERK IC50
Text: The purpose of this assay is to measure the ability of test compounds to inhibit SOS1 function in cells. SOS1 activates RAS proteins by catalyzing the conversion of […] to […] in response to receptor tyrosine kinase activation. Activation of RAS induces a sequence of cellular signaling events that results in increased phosphorylation of ERK at […] (pERK). The procedure described below measures the level of cellular pERK in response to test compounds in PC-9 cells (EGFR Ex[…]). PC-9 cells were grown and maintained using media and procedures recommended by the ATCC. On the day prior to compound addition, cells were plated in 384-well cell culture plates (40 μL/well) and grown overnight in a 37° C., 5% CO2 incubator. Test compounds were prepared in 10, 3-fold dilutions in DMSO, with a top concentration of 10 mM. On the day of the assay, 40 nL of test compound was added to each well of cell culture plate using an Echo550 liquid handler (LabCyte). Concentrations of test compound were tested in duplicate with highest test concentration being 10 μM. After compound addition, cells were incubated for 1 hour at 37° C., 5% CO2. Following incubation, culture medium was removed and cells were washed once with phosphate buffered saline. Cellular pERK level was determined using the AlphaLISA SureFire Ultra p-ERK1/2 Assay Kit (PerkinElmer). Cells were lysed in 25 μL lysis buffer, with shaking at 600 RPM at room temperature for 15 minutes. Lysate (10 μL) was transferred to a 384-well Opti-plate (PerkinElmer) and 5 μL acceptor mix was added. The plate was centrifuged at 1000 RPM for 1 minute, and incubated in the dark for 2 hours. Following this incubation, 5 μL of donor mix was added, the plate was sealed and centrifuged at 1000 RPM for 1 minute, and the mixture was incubated for 2 hours at room temperature. Signal was read on an Envision plate reader (PerkinElmer) using standard AlphaLISA settings. Analysis of raw data was carried out in Excel (Microsoft) and Prism (GraphPad). Signal was plotted vs. the decadal logarithm of compound concentration, and IC50 was determined by fitting a 4-parameter sigmoidal concentration response model.

[2] = target: T1, SOS1 catalytic domain (residues 564-1049) (Homo sapiens, UniProt Q07889); assay: Binding affinity to SOS1 using Surface Plasmon Resonance (SPR); conditions: avi-tagged SOS1 catalytic domain immobilized on sensor chip; read-out: SOS1 SPR Equilibrium Kd
T1 construct: SOS1 catalytic domain (residues 564-1049) immobilized on a sensor chip
T1 sequence (Q07889 564-1049): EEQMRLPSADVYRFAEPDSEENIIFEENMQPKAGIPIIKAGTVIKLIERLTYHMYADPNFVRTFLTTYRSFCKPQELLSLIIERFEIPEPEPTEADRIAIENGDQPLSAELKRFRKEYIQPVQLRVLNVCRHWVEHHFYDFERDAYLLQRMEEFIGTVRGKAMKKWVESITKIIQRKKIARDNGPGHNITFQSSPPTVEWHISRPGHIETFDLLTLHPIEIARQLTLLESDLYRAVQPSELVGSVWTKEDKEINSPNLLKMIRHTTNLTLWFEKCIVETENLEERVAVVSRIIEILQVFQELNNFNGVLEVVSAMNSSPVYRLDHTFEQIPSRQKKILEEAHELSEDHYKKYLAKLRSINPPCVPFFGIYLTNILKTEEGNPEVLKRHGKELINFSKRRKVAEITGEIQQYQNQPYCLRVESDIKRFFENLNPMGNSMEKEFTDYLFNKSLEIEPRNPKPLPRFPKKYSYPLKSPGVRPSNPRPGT
Text: Potency Assay: Measurement of the Binding Affinity of Compounds of the Invention to SOS! using Surface Plasmon Resonance (SPR)
The purpose of the SPR assay was to measure the direct binding of compounds to SOS1 catalytic domain (residues 564-1049) immobilized on a sensor chip. Data was reported as equilibrium dissociation constant (Kd) values.
Using a GE Biacore 8K SPR instrument, avi-tagged SOS1 catalytic domain protein was immobilized to a level of approximately 6000 response units (RU) on a streptavidin-coated SPR sensor chip in assay buffer containing 0.01 M HEPES, 0.15 M NaCl and 0.05% v/v Surfactant P20. In assay buffer containing 2% DMSO, concentration series of test compounds were generated spanning 5 μM to 4.9 nM over ten 2-fold dilutions. For each test compound, a separate 0 μM sample was generated for use during subsequent double reference subtraction. Serially for each test compound, individual dilution samples were flowed over the immobilized SOS1 protein at a flow rate of 50 μL/minute to monitor the association with SOS1. Dissociation of bound test compound from the SOS1 protein was immediately monitored by flowing assay buffer over the sensor surface and monitoring the decrease in binding signal back to the baseline level seen in the absence of compound. This was repeated for all compound dilutions in each series. The binding level response for each test compound concentration was noted immediately prior to the end of the association phase, and a secondary plot generated showing binding response level versus test compound concentration generated for each compound dilution series.

[3] = target: T2, SOS1 nucleotide exchange of KRAS (catalytic domain of SOS1, residues 564-1049; wild-type KRAS) (Homo sapiens, UniProt Q07889); assay: Mode of Action Assay: Inhibition of SOS1 Nucleotide Exchange Activity (TR-FRET); format: biochemical; conditions: TR-FRET signal
T2 construct: tagless catalytic domain of SOS1 (residues 564-1049)
T2 sequence (Q07889 564-1049): T1 sequence (Q07889 564-1049)
Description: The purpose of this assay was to characterize the inhibitory activity of compounds on SOS1 nucleotide exchange of KRAS. Data was reported as IC50 values based on the TR-FRET signal.
Note—the following protocol describes a procedure for monitoring the inhibition of SOS1 nucleotide exchange activity of wild-type KRAS in response to a compound of the invention. Other KRAS mutants and RAS isoforms maybe employed.
In assay buffer containing 20 mM HEPES, pH 7.5, 150 mM NaCl, 5 mM MgCl2, 0.05% Tween-20, 0.1% BSA, 1 mM DTT, concentration series of test compounds were generated spanning 100 μM to 1.7 nM over eleven 3-fold serial dilutions in a 384-well assay plate at a volume of 20 μL. The purified tagless catalytic domain of SOS1 (residues 564-1049) was first diluted in assay buffer at a concentration of 100 nM, and then 20 μL of the SOS1 containing solution was directly dispensed into compound plates. The SOS1/compound mixture was incubated at room temperature with constant mixing on an orbital shaker for 20 minutes to allow the reaction to reach equilibrium. A KRAS mixture was prepared by diluting 66.7 nM avi-tagged KRAS (residue 1-169), 3.33 nM Streptavidin-Tb and 333 nM EDA-GTP-DY-647P1 in assay buffer. This mixture was prepared immediately before addition to the SOS1/compound mixture to prevent intrinsic nucleotide exchange. Then 5 μL of the pre-incubated SOS1/compound mixture and 7.5 μL of the KRAS mixture were added sequentially in a 384-well low volume black round bottom plate and incubated at room temperature with constant shaking for 30 minutes. Time-resolved fluorescence was measured on a PerkinElmer Envision plate reader. DMSO and 10 μM of compound (i) were used as negative and positive controls, respectively.
Three replicates were performed for each compound. Data were normalized by the following: (Positive control—Sample signal)/(Positive control—negative control)*100. The data were fit using a four-parameter logistic fit.

[4] = PC-9 cells (EGFR Ex19Del), 1 hour incubation, AlphaLISA p-ERK1/2

SMILES	IC50 [1, 4]	Kd [2]	IC50 [3]	IC50 ([1]; PC-9, 1 h)
CNCc1cc2c(N[C@H](C)c3cc(N)cc(C(F)(F)F)c3)nc(C)nn2c1 [Example 28, N-[(1R)-1-[3-amino-5-(trifluoromethyl)phenyl]ethyl]-2-methyl-6-(methylaminomethyl)pyrrolo[2,1-f][1,2,4]triazin-4-amine]	< 1 µM	> 0.4 µM	–	–
C[C@@H](Nc1nc(Cl)cn2cc(C(=O)N3CCOCC3)nc12)c1cc(N)cc(C(F)(F)F)c1 [Example 29, [8-[[(1R)-1-[3-amino-5-(trifluoromethyl)phenyl]ethyl]amino]-6-chloro-imidazo[1,2-a]pyrazin-2-yl]-morpholino-methanone]	> 1 µM	> 0.4 µM	> 1 µM	–
COc1cc2c(N[C@H](C)c3cc(N)cc(C(F)(F)F)c3)nc(C)nn2c1 [Example 30, N-[(1R)-1-[3-amino-5-(trifluoromethyl)phenyl]ethyl]-6-methoxy-2-methyl-pyrrolo[2,1-f]-[1,2,4]triazin-4-amine]	> 1 µM	> 0.4 µM	–	–
C[C@@H](Nc1ncnc2cc(C(=O)N3CCOCC3)sc12)c1cc(N)cc(C(F)(F)F)c1 [Example 31, [4-[[(1R)-1-[3-amino-5-(trifluoromethyl)phenyl]ethyl]amino]thieno[3,2-d]pyrimidin-6-yl]-morpholino-methanone]	> 1 µM	≤ 0.4 µM	> 1 µM	–
Cc1nc(N[C@H](C)c2cc(N)cc(C(F)(F)F)c2)c2cc(C(=O)N3CC(O)C3)cn2n1 [Example 33, [4-[[(1R)-1-[3-amino-5-(trifluoromethyl)phenyl]ethyl]amino]-2-methyl-pyrrolo[2,1-f][1,2,4]triazin-6-yl]-(3-hydroxyazetidin-1-yl)methanone]	< 1 µM	> 0.4 µM	< 1 µM	–
Cc1nc(N[C@H](C)c2cc(N)cc(C(F)(F)F)c2)c2cc(C3(O)CC(O)C3)cn2n1 (stereo partly drawn) [Example 35, (R)-1-(4-((1-(3-amino-5-(trifluoromethyl)phenyl)ethyl)amino)-2-methylpyrrolo[2,1-f][1,2,4]triazin-6-yl)cyclobutane-1,3-diol]	> 1 µM	≤ 0.4 µM	> 1 µM	–
C[C@@H](Nc1cc(Cl)nc2nc(C(=O)N3CCOCC3)cn12)c1cc(N)cc(C(F)(F)F)c1 [Example 48, [5-[[(1R)-1-[3-amino-5-(trifluoromethyl)phenyl]ethyl]amino]-7-chloro-imidazo[1,2-a]pyrimidin-2-yl]-morpholino-methanone]	–	> 0.4 µM	–	< 1 µM
C[C@@H](Nc1ncnc2cc(C3=CCNCC3)sc12)c1cc(N)cc(C(F)(F)F)c1 [Example 49, N-[(1R)-1-[3-amino-5-(trifluoromethyl)phenyl]ethyl]-6-(1,2,3,6-tetrahydropyridin-4-yl)thieno[3,2-d]pyrimidin-4-amine]	> 1 µM	–	> 1 µM	–
C[C@@H](Nc1nccc2sc(C3=CCNCC3)cc12)c1cc(N)cc(C(F)(F)F)c1 [Example 56, N-[(1R)-1-[3-amino-5-(trifluoromethyl)phenyl]ethyl]-2-(1,2,3,6-tetrahydropyridin-4-yl)thieno[3,2-c]pyridin-4-amine]	> 1 µM	–	> 1 µM	–
Cc1cn2nc(C(=O)N3CCN(C)CC3)cc2c(N[C@H](C)c2cccc(C(F)(F)F)c2)n1 [Example 61]	> 1 µM	–	> 1 µM	–
Cc1nc(N[C@H](C)c2cc(N)cc(C(F)(F)F)c2)c2cc([C@]3(O)CC[C@H](C(=O)N(C)C)CC3)cn2n1 [Example 66, 4-[4-[[(1R)-1-[3-amino-5-(trifluoromethyl)phenyl]ethyl]amino]-2-methyl-pyrrolo[2,1-f][1,2,4]triazin-6-yl]-4-hydroxy-N,N-dimethylcyclohexanecarboxamide]	> 1 µM	≤ 0.4 µM	–	–
C[C@@H](Nc1nc(Cl)nn2cc(C(=O)N3CCOCC3)cc12)c1cc(N)cc(C(F)(F)F)c1 [Example 68]	< 1 µM	–	–	–
Cc1cn2nc(C(=O)N3CC4CCC(C3)N4C)cc2c(N[C@H](C)c2cc(N)cc(C(F)(F)F)c2)n1 [Example 78]	< 1 µM	–	< 1 µM	–
C[C@@H](Nc1nc(Cl)nn2cc(C(=O)N3CCN(C)CC3)cc12)c1cc(N)cc(C(F)(F)F)c1 [Example 94, N-[(1R)-1-[3-amino-5-(trifluoromethyl)-phenyl]ethyl]-2-chloro-6-(4-methylpiperazine-1-carbonyl)pyrrolo[2,1-f][1,2,4]triazin-4-amine]	< 1 µM	–	< 1 µM	–
C[C@@H](Nc1nc(Cl)nn2cc(C(=O)N3CCN(C)CC3)cc12)c1cccc(C(F)(F)F)c1 [Example 95]	> 1 µM	–	> 1 µM	–
C[C@@H](Nc1nc(Cl)nn2cc(C(=O)N3CC4(COC4)C3)cc12)c1cccc(C(F)(F)F)c1 [Example 96]	< 1 µM	–	> 1 µM	–
C[C@@H](Nc1nc(Cl)nn2cc(C(=O)N3CCN(C)CC3)cc12)c1cccc(C(F)F)c1F [Example 98]	< 1 µM	–	< 1 µM	–
C[C@@H](Nc1nc(Cl)cn2cc(C(=O)N3CCOCC3)cc12)c1cc(N)cc(C(F)(F)F)c1 [Example 102, N-[(1R)-1-[3-amino-5-(trifluoromethyl)phenyl]ethyl]-3-chloro-7-(morpholine-4-carbonyl)pyrrolo [1,2-a]pyrazin-1-amine]	> 1 µM	–	> 1 µM	–
